Consider 3 compounds from US10731159B2, “Cationic lipid” (DAIICHI SANKYO COMPANY, LIMITED, priority 2013, dated 2020).

One series relates to Factor VII protein. The experiment in a line: Test Example 9: Factor VII (FVII) protein measurement in mouse plasma, 0.1 mg/kg i.v. The series is classed as in vivo. To be noted: mice, i.v. 0.1 mg/kg; for FVII inhibitory activity (in words): 1 day and 6 days after administration; for Relative amount of FVII, 1 day later: plasma 1 day after administration; for Relative amount of FVII, 1 day later / Relative amount of FVII, 6 days later: PBS = 100%; for Relative amount of FVII, 6 days later: plasma 6 days after administration. On the procedure: The Factor VII protein was measured according to a method described in Nature Biotechnology (2010) 28, 172-176. C57BL6/J mice (male, 9 weeks old) were randomly grouped (n=4). The nucleic acid lipid particle dispersion prepared in Example 33 was intravenously injected at a dose of 0.3 mg/kg to the tail of each mouse. One day after the administration, approximately 50 μL of blood was collected from the tail vein, and plasma was obtained. The amount of the Factor VII protein in the obtained plasma was measured using Biophen FVII assay kit (manufactured by Aniara Corp.) according to the attached protocol.
When the amount of FVII of respective plasma samples collected in equal amounts from individuals in a PBS administration group was defined as 100%, the relative ratio (%) of the amount of FVII in a plasma sample of each individual was used as a measurement value (A). An average value (B) was determined from the respective measurement values of the individuals in the PBS administration group. The relative ratio of the measurement value (A) of each individual was determined from the expression: A/B×100(%).
By the same procedures as in Test Example 7, the strength of Factor VII protein expression inhibitory activity was compared among nucleic acid lipid particles each prepared using a novel lipid. The prepared nucleic acid lipid particle dispersion was intravenously injected at a dose of 0.1 mg/kg to the tail of each mouse. One day and 6 days after the administration, approximately 50 μL of blood was collected from the tail vein, and plasma was obtained.

Series [1] can be described thus: Rate of encapsulation of polynucleotide/mRNA (Quant-iT RiboGreen, with and without Triton X-100). The series is classed as physicochemical. On the procedure: The rate of encapsulation of the double-stranded polynucleotide was measured using Quant-iT RiboGreen RNA Assay kit (Invitrogen Corp.) according to the attached document.
Specifically, the double-stranded polynucleotide in the nucleic acid lipid particle dispersion was quantified in the presence and absence of a 0.015% Triton X-100 detergent, and the rate of encapsulation was calculated according to the following expression: {[Amount of the double-stranded polynucleotide in the presence of the detergent]−[Amount of the double-stranded polynucleotide in the absence of the detergent]}/[Amount of the double-stranded polynucleotide in the presence of the detergent]}×100(%) (3) Ratio of Double-Stranded Polynucleotide to Lipid
The rate of encapsulation of the mRNA was measured using Quant-iT RiboGreen RNA Assay kit (Invitrogen Corp.) according to the attached document.
Specifically, the mRNA in the nucleic acid lipid particle dispersion was quantified in the presence and absence of a 0.015% Triton X-100 detergent, and the rate of encapsulation was calculated according to the following expression: {[Amount of the mRNA in the presence of the detergent]−[Amount of the mRNA in the absence of the detergent]}/[Amount of the mRNA in the presence of the detergent]}×100(%) (3) Ratio of mRNA to Lipid

A short description of series [2]: Ratio of polynucleotide/mRNA to lipid (wt/wt). The series is classed as physicochemical. On the procedure:
The nucleic acid lipid particle dispersion was mixed with acetonitrile and chloroform at a ratio of 1:1:1 and centrifuged at 15,000 rpm for 2 minutes. Then, the aqueous layer obtained as an upper layer was recovered, followed by the extraction of the double-stranded polynucleotide. The amount of the double-stranded polynucleotide in the sample was measured by ion-exchange chromatography (system: Agilent 1100 series, column: TSKgel DEAE-2SW (2.6×150 mm) (Tosoh Corp), buffer A: 20% acetonitrile, buffer B: 20% acetonitrile and 1.6 M ammonium formate, gradient (B %): 30-55% (0-20 min), flow rate: 1 mL/min, temperature: 40° C., detection: 260 nm).
The amount of the phospholipid in the nucleic acid lipid particle dispersion was measured using Phospholipid C-Test Wako (Wako Pure Chemical Industries Ltd.) according to the attached document. Specifically, the phospholipid in the sample was quantified in the presence of a 1% Triton X-100 detergent.
The amounts of cholesterol and LP in the nucleic acid lipid particle dispersion were measured by reverse-phase chromatography (system: Agilent 1100 series, column: Chromolith Performance RP-18 endcapped 100-3 monolithic HPLC-column (Merck), buffer A: 0.01% trifluoroacetic acid, buffer B: 0.01% trifluoroacetic acid and methanol, gradient (B %): 87-92% (0-10 min), flow rate: 2 mL/min, temperature: 50° C., detection: 205 nm).
The total amount of lipids was calculated from the amount of the phospholipid and the compositional ratio of lipid components constituting the liposome, and the ratio of the polynucleotide to the lipid was calculated from the aforementioned amount of the polynucleotide and the total amount of lipids according to the following expression: [Double-stranded polynucleotide concentration]/[Total lipid concentration] (wt/wt)
The total amount of lipids was calculated from the amount of the phospholipid, the amount of cholesterol, and the amount of LP, and the compositional ratio of lipid components constituting the liposome, and the ratio of the polynucleotide to the lipid was calculated from the aforementioned amount of the polynucleotide and the total amount of lipids according to the following expression: [Double-stranded polynucleotide concentration]/[Total lipid concentration] (wt/wt)
The amount of the double-stranded polynucleotide in a sample from the nucleic acid lipid particle dispersion was measured in the presence of a 5% Triton X-100 detergent by ion-exchange chromatography (system: Agilent 1100 series, column: DNAPac PA200 (4×250 mm) (Thermo Fisher Scientific K.K.), buffer A: 10 mM Tris, 25 mM sodium perchlorate, and 20% ethanol, pH 7.0, buffer B: 10 mM Tris, 250 mM sodium perchlorate, and 20% ethanol, pH 7.0, gradient (B %): 20-70% (0-15 min), flow rate: 0.5 mL/min, temperature: 40° C., detection: 260 nm).
The amounts of cholesterol and LP in the nucleic acid lipid particle dispersion were measured by reverse-phase chromatography (system: Agilent 1100 series, column: Chromolith Performance RP-18 endcapped 100-3 monolithic HPLC-column (Merck), buffer A: 0.01% trifluoroacetic acid, buffer B: 0.01% trifluoroacetic acid and methanol, gradient (B %): 82-92% (0-10 min), flow rate: 2 mL/min, temperature: 50° C., detection: 205 nm).
The total amount of lipids was calculated from the amount of the phospholipid, the amount of cholesterol, and the amount of LP, and the compositional ratio of lipid components constituting the liposome, and the ratio of the mRNA to the lipid was calculated from the “amount of the mRNA in the presence of the detergent” of the preceding paragraph (2) according to the following expression: [mRNA concentration in the presence of the detergent]/[Total lipid concentration] (wt/wt)

The nature of series [3]: Average particle size of nucleic acid lipid particle (NICOMP 380ZLS). The series is classed as physicochemical. On the procedure:
The particle size of the liposome was measured using Zeta Potential/Particle Sizer NICOMP™ 380ZLS (Particle Sizing Systems, LLC). In the tables, the average particle size is indicated by a volume-average particle size, and the numeric value following ±represents a deviation.

For series [4], the system named is human β-catenin gene. The experiment in a line: Test Example 2: β-catenin gene expression inhibition in HepG2 cells, 3 days, real-time PCR. The series is classed as cell-based. On the procedure:
(§1) As described below, the strength of human β-catenin gene expression inhibitory activity was compared among nucleic acid lipid particles each prepared using a novel lipid.
The concentration of a human liver cancer HepG2 cell line (derived from human liver cancer) was adjusted to 50000 cells/mL in a DMEM medium (manufactured by Invitrogen Corp.) containing 10% fetal bovine serum (culture medium). Then, the resulting culture solution was inoculated at 100 μL/well to a 96-well flat-bottomed plate (manufactured by Corning Inc./Falcon) and cultured at 37° C. for 1 day under 5.0% CO2. The nucleic acid lipid particle-containing dispersion prepared in Example 31 was diluted with a culture medium to prepare dilution series having final double-stranded polynucleotide concentrations of 30, 3, 0.3, and 0.03 nM in the medium. Then, each dilution was added to the cells after removal of the culture supernatant, and the culture was further continued for 3 days. This operation was performed at N=3 for each concentration.
(§2) A lysate and cDNA for real-time PCR measurement were prepared from the transfected cells using TaqMan® Fast-Cells-to-Ct kit (Life Technologies, Inc./Ambion) according to the instruction manual. In the lysate preparation, Lysis Solution supplemented with DNase I was used. The probes for real-time PCR used were TaqMan® Gene Expression Assays (CTNNB1, FAM probe) (Hs00355045_m1, manufactured by Applied Biosystems, Inc.) for the human β-catenin gene and a human GAPDH gene probe as an internal standard (VIC probe, Hs99999905_m1, manufactured by Applied Biosystems, Inc.). 5 μL of TaqMan® Fast Advanced Master Mix, 2 μL of RNase-Free Water, 0.5 μL of each gene probe, and 2 μL of the prepared cDNA solution were added per well of a 384-well PCR plate (manufactured by Applied Biosystems, Inc.) to bring the total amount to 10 μL, which was then loaded in ViiA™ 7 Real-time PCR system (manufactured by Applied Biosystems, Inc.) and subjected to PCR under conditions given below. The real-time PCR was carried out at N=4 for the cDNA prepared from the lysate.
(§3) PCR initial activation: 95° C. for 20 seconds
(§4) PCR: 95° C. for 1 second • 62° C. for 20 seconds
(§5) This PCR cycle was repetitively performed 40 times.
(§6) The quantitative analysis was conducted by the ΔΔCt method.
For orientation: Real-time PCR tracks product formation cycle by cycle.

Series [5] concerns human β-catenin gene. Nature of the series: Test Example 1: β-catenin gene expression inhibition in SW480 cells, 3 days, real-time PCR. The series is classed as cell-based. On the procedure: as §1
The concentration of a human colorectal cancer SW480 cell line (derived from human colorectal adenocarcinoma) was adjusted to 50,000 cells/mL in an RPMI1640 medium (manufactured by Invitrogen Corp.) containing 10% fetal bovine serum (culture medium). Then, the resulting culture solution was inoculated at 100 μL/well to a 96-well flat-bottomed plate (manufactured by Corning Inc./Falcon) and cultured at 37° C. for 1 day under 5.0% CO2. The nucleic acid lipid particle dispersion prepared in Example 31 was diluted with a culture medium to prepare dilution series having final double-stranded polynucleotide concentrations of 30, 3.0, 0.3, and 0.03 nM in the medium. Then, each dilution was added to the cells after removal of the culture supernatant, and the culture was further continued for 3 days. This operation was performed at N=3 for each concentration.
as §2, §3, §4, §5, §6

Where [6] appears, read: Example 56: siFVII, DSPC:Chol:LP:PEG-C-DMA=10:48:40:2, N/P 3.
Where [7] appears, read: Example 56: siFVII, DSPC:Chol:LP:PEG-C-DMA=10:48:40:2, N/P 3, ± deviation.
[8] abbreviates: compared with particle containing lipid of Reference Example 2.

As to `CCCCCC[C@H](C/C=C\CCCCCCCC(CCCCCCC/C=C\C[C@@H](CCCCCC)OC(C)=O)OC(=O)OCCCN(C)C)OC(C)=O` [Example 23, (7R,9Z,26Z,29R)-18-({[3-(Dimethylamino)propoxy]carbonyl}oxy)pentatriaconta-9,26-diene-7,29-diyl Diacetate], in the series on Factor VII protein, the “FVII inhibitory activity (in words)” value is listed as “strong FVII inhibitory activity”; the “Relative amount of FVII, 1 day later” value was found to be 21%; the “Relative amount of FVII, 6 days later” value is reported as 32%. In addition, the “Rate of polynucleotide encapsulation” value in series [1] (setting [6]) is 99%. Also, in series [2] (setting [6]), the “Ratio of polynucleotide to lipid siRNA/lipid” value (“Ratio … to lipid siRNA/lipid” for short) was determined as 0.076 wt/wt. The compound also yielded an Average particle size in series [3] (setting [7]) of 219 ± 49 nm.
`CCCCCCCCCCC(CCCCCCC/C=C\C[C@@H](CCCCCC)OC(C)=O)OC(=O)OCCCN(C)C` (stereo partly drawn) [Example 28, (7R,9Z)-18-({[3-(Dimethylamino)propyloxy]carbonyl}oxy)octacos-9-en-7-yl Acetate]: in the series with Factor VII protein, the “FVII inhibitory activity (in words)” value is on record as “strong FVII inhibitory activity”; the “Relative amount of FVII, 1 day later” value is recorded as 45%; the “Relative amount of FVII, 6 days later” value is reported as 57%. For the same compound, in series [1] (setting [6]), the “Rate of polynucleotide encapsulation” value is recorded as 97%. Further, in series [2] (setting [6]), the “Ratio … to lipid siRNA/lipid” value is reported as 0.083 wt/wt. This compound yielded an Average particle size in series [3] (setting [7]) of 177 ± 36 nm.
By IC50 is commonly meant the point on the concentration scale where inhibition reaches its midpoint. `CCCCC/C=C\C/C=C\CCCCCCCCC(CCCCCCCC/C=C\C/C=C\CCCCC)OC(=O)OCCCN(C)C` [Example 1, 3-(Dimethylamino)propyl(6Z,9Z,28Z,31Z)-heptatriaconta-6,9,28,31-tetraen-19-yl Carbonate]: the “inhibitory activity against β-catenin gene expression (in words)” value in the series on human β-catenin gene [4] (setting [8]) and in the series with human β-catenin gene [5] (setting [8]) was “strong inhibitory activity” each time. In addition, the IC50 was found to be 0.38 nM with human β-catenin gene [4] (nucleic acid lipid particle of Example 31 containing the named lipid, read-out: β-catenin gene expression inhibitory activity IC50) and 3.5 nM in the series on human β-catenin gene [5] (nucleic acid lipid particle of Example 31 containing the named lipid, double-stranded polynucleotide concentration, read-out: β-catenin gene expression inhibitory activity IC50). In addition, in series [1] (particles of Example 31: DSPC:Chol:LP:PEG-C-DMA=20:48:30:2, CT-157/CT-169 double-stranded polynucleotide), the “Rate of polynucleotide encapsulation” value came out at 94.3%. Also, the “Ratio … to lipid siRNA/lipid” value in series [2] (particles of Example 31, total lipids calculated from phospholipid amount and compositional ratio (Table 3)) is on record as 0.109 wt/wt. In series [3] (particles of Example 31, volume-average particle size ± deviation), this compound showed an Average particle size of 183 ± 41 nm.
